# Key:
# [1] = target: T1, Recombinant human His-tagged Kat6a protein (amino acids 194-810) (Homo sapiens, UniProt Q92794); assay: Kat6a activity assay (TR-FRET, acetylation of Histone-H4-derived peptide); assay type: biochemical; conditions: 60 mins at 22° C., 220 nM H4 peptide, 600 nM Acetyl Coenzyme A, read-out: KAT6A - DPF/HAT domain IC50 [mol/l] (arithmetic mean)
# T1 construct: Kat6a protein (amino acids 194-810); His
# Method: Kat6a inhibitory activities of the compounds described in the present invention were quantified using a Fluorescence Resonance Energy Transfer (TR-FRET) assay which measures acetylation of a synthetic, biotinylated Histone-H4-derived peptide by the enzyme.
# In this case 50 nl DMSO were used instead of compounds. […] IC50 values were determined by regression analysis based on a 4 parameter equation (minimum, maximum, ICM, Hill; Y=Max+(Min−Max)/(1+(X/ICso) Hill) using the Screener Software (Genedata).
# [2] = system: ESR1 transcription in MVLN cells; assay: MVLN reporter assay: repression of ESR1 transcription (luciferase signal); assay type: cell-based; conditions: Homo sapiens, MVLN, 24 h, luciferase signal after 24 h, read-out: MVLN reporter assay, IC50 [M] (arithmetic mean)
# Source text: KAT6A controls transcription of the ESR1 gene in breast cancer cells. Compound treatment that interferes with this mechanism was quantified using MVLN cells. These cells constitutively express the ER and are stably transfected with the luciferase (LUC) reporter gene and the corresponding hormone responsive element derived from the 5′-flanking region of the Xenopus Vitellogenin A2 gene (Pons et al., 1990, Demirpense et al., 1993, Joyeux et al., 1993). The repressive effect on ERα transcription activity of a test chemical is directly related to the luciferase measured in the lysate of treated MVLN cells. […] Each sample was prepared as duplicate and rim wells were excluded. For luciferase signal determination 100 μl of a 1:1 mixture of Steadylite plus (Perkin Elmer; 6016759) and assay medium was added after 24 h for 15 minutes and measured in Victor X3 (Perkin Elmer). To exclude any effects caused by cell loss during the treatment, cell density was determined using Alamar Blue (Invitrogen; DAL1100). Prior to the luciferase measurement 10 μl Alamar Blue were added to each well and the plates were incubated for 2 h in the incubator. Then fluorescence was measured with Victor X3 (Perkin Elmer) at 530 nm/590 nm.
# T1 sequence (Q92794 194-810): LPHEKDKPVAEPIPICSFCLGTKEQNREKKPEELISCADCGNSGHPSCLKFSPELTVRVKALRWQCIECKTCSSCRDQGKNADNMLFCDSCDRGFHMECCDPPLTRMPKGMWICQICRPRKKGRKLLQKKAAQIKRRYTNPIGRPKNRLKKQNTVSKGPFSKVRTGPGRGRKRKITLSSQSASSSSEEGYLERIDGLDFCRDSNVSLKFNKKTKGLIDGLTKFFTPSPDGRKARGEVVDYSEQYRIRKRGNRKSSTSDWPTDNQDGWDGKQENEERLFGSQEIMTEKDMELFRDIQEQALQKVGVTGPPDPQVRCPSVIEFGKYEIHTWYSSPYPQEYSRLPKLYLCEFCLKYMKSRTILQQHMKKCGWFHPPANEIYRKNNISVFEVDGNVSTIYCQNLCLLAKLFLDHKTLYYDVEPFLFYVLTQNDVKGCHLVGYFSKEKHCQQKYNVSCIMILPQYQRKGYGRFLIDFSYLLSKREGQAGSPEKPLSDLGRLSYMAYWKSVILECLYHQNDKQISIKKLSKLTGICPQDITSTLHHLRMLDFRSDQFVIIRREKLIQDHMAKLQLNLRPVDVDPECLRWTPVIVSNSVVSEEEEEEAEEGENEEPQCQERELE
SMILES,IC50 [1] [nM],IC50 [2] [M]
"Cc1cc(Nc2ccccc2S(=O)(=O)NC(=O)c2cc3c(F)cc(N4CCC4)cc3o2)n(-c2ccccc2)n1 [Example 70, 6-(Azetidin-1-yl)-4-fluoro-N-{2-[(3-methyl-1-phenyl-1H-pyrazol-5-yl)amino]benzene-1-sulfonyl}-1-benzofuran-2-carboxamide]",494,1.58e-05
"CC(C)c1ccc(C(C)C)c(S(=O)(=O)NC(=O)c2cc3c(F)cc(N4CCC4)cc3o2)c1 [Example 30, 6-(Azetidin-1-yl)-N-[2,5-di(propan-2-yl)benzene-1-sulfonyl]-4-fluoro-1-benzofuran-2-carboxamide]",24.7,4.18e-07
"Cc1ccc2cccnc2c1S(=O)(=O)NC(=O)c1cc2c(F)cc(N3CCC3)cc2o1 [Example 173, 6-(Azetidin-1-yl)-4-fluoro-N-(7-methylquinoline-8-sulfonyl)-1-benzofuran-2-carboxamide]",65.7,1.58e-07
"Cc1ccc(S(=O)(=O)NC(=O)c2cc3c(F)cc(N4CCC4)cc3o2)c2ccncc12 [Example 191, 6-(Azetidin-1-yl)-4-fluoro-N-(8-methylisoquinoline-5-sulfonyl)-1-benzofuran-2-carboxamide]",301,4.99e-06
"Cc1nn(C(C)C)cc1S(=O)(=O)NC(=O)c1cc2c(F)cc(N3CCC3)cc2o1 [Example 91, 6-(Azetidin-1-yl)-4-fluoro-N-[3-methyl-1-(propan-2-yl)-1H-pyrazole-4-sulfonyl]-1-benzofuran-2-carboxamide]",379,3.08e-07
"CCOc1cc(F)ccc1S(=O)(=O)NC(=O)c1cc2c(F)cc(N3CCC3)cc2o1 [Example 208, 6-(Azetidin-1-yl)-N-(2-ethoxy-4-fluoro-phenyl)sulfonyl-4-fluoro-benzofuran-2-carboxamide]",45.4,7.78e-08
"O=C(NS(=O)(=O)c1c(F)cccc1C1CCC1)c1cc2c(F)cc(N3CCC3)cc2o1 [Example 24, 6-(Azetidin-1-yl)-N-(2-cyclobutyl-6-fluorobenzene-1-sulfonyl)-4-fluoro-1-benzofuran-2-carboxamide]",46.7,3e-07
"CCCOc1cccc(OC(C)(C)C)c1S(=O)(=O)NC(=O)c1cc2c(F)cc(N3CCC3)cc2o1 [Example 83, 6-(Azetidin-1-yl)-N-(2-tert-butoxy-6-propoxybenzene-1-sulfonyl)-4-fluoro-1-benzofuran-2-carboxamide]",26.7,2.85e-07
"COc1ccc(C2=CCN(C)CC2)cc1S(=O)(=O)NC(=O)c1cc2c(F)cc(N3CCC3)cc2o1 [Example 203, 6-(Azetidin-1-yl)-4-fluoro-N-[2-methoxy-5-(1-methyl-1,2,3,6-tetrahydropyridin-4-yl)benzene-1-sulfonyl]-1-benzofuran-2-carboxamide]",156,3.78e-06
"CCc1ccc(C)c(S(=O)(=O)NC(=O)c2cc3c(F)cc(N4CCC4)cc3o2)c1 [Example 34, 6-(Azetidin-1-yl)-N-(5-ethyl-2-methylbenzene-1-sulfonyl)-4-fluoro-1-benzofuran-2-carboxamide]",59.6,5.79e-07
"O=C(NS(=O)(=O)c1csc2ccccc12)c1cc2c(F)cc(N3CCC3)cc2o1 [Example 178, 6-(Azetidin-1-yl)-N-(1-benzothiophene-3-sulfonyl)-4-fluoro-1-benzofuran-2-carboxamide]",35.3,3.16e-07
"CCn1nc(S(=O)(=O)NC(=O)c2cc3c(F)cc(N4CCC4)cc3o2)c2cccnc21 [Example 143, 6-(Azetidin-1-yl)-N-(1-ethyl-1H-pyrazolo[3,4-b]pyridine-3-sulfonyl)-4-fluoro-1-benzofuran-2-carboxamide]",226,4.61e-06
"CC(Oc1ccccc1S(=O)(=O)NC(=O)c1cc2c(F)cc(N3CCC3)cc2o1)C(F)(F)F (racemic) [Example 13, 6-(Azetidin-1-yl)-4-fluoro-N-(2-{[-1,1,1-trifluoropropan-2-yl]oxy}benzene-1-sulfonyl)-1-benzofuran-2-carboxamide (rac)]",18.9,1.66e-07

# Results, then the molecule that gave them:
IC50 [1] [nM],IC50 [2] [M],SMILES
207,3.45e-06,"CCS(=O)(=O)c1ccccc1S(=O)(=O)NC(=O)c1cc2c(F)cc(N3CCC3)cc2o1 [Example 77, 6-(Azetidin-1-yl)-N-[2-(ethanesulfonyl)benzene-1-sulfonyl]-4-fluoro-1-benzofuran-2-carboxamide]"
55.1,8.48e-07,"COc1ccc2snnc2c1S(=O)(=O)NC(=O)c1cc2c(F)cc(N3CCC3)cc2o1 [Example 182, 6-(Azetidin-1-yl)-4-fluoro-N-(5-methoxy-1,2,3-benzothiadiazole-4-sulfonyl)-1-benzofuran-2-carboxamide]"
318,8.64e-07,"CC(C)N(C)c1cc(F)cc(F)c1S(=O)(=O)NC(=O)c1cc2c(F)cc(N3CC(F)C3)cc2o1 [Example 165, N-{2,4-difluoro-6-[methyl(propan-2-yl)amino]benzene-1-sulfonyl}-4-fluoro-6-(3-fluoroazetidin-1-yl)-1-benzofuran-2-carboxamide]"
98.7,1.42e-06,"O=C(NS(=O)(=O)c1c(F)cccc1NC1CC1)c1cc2c(F)cc(N3CCC3)cc2o1 [Example 50, 6-(Azetidin-1-yl)-N-[2-(cyclopropylamino)-6-fluorobenzene-1-sulfonyl]-4-fluoro-1-benzofuran-2-carboxamide]"
613,1.02e-05,"O=C(NS(=O)(=O)c1cc(C(F)(F)F)cnc1Cl)c1cc2c(F)cc(N3CCC3)cc2o1 [Example 103, 6-(Azetidin-1-yl)-N-[2-chloro-5-(trifluoromethyl)pyridine-3-sulfonyl]-4-fluoro-1-benzofuran-2-carboxamide]"
2000,> 2e-05,"COC(=O)Nc1cccc2c(S(=O)(=O)NC(=O)c3cc4c(F)cc(N5CCC5)cc4o3)cccc12 [Example 192, Methyl (5-{[6-(azetidin-1-yl)-4-fluoro-1-benzofuran-2-carbonyl]sulfamoyl}naphthalen-1-yl)carbamate]"
148,3.26e-07,"CCOc1cccc(C)c1S(=O)(=O)NC(=O)c1cc2c(F)cc(N3CCC3)cc2o1 [Example 25, 6-(Azetidin-1-yl)-N-(2-ethoxy-6-methylbenzene-1-sulfonyl)-4-fluoro-1-benzofuran-2-carboxamide]"
32.3,5.49e-07,"COc1ccc(-c2cnn(C)c2)cc1S(=O)(=O)NC(=O)c1cc2c(F)cc(N3CCC3)cc2o1 [Example 199, 6-(Azetidin-1-yl)-4-fluoro-N-[2-methoxy-5-(1-methyl-1H-pyrazol-4-yl)benzene-1-sulfonyl]-1-benzofuran-2-carboxamide]"
7.58,2.44e-07,"CCOc1ccc(Oc2ccccc2)cc1S(=O)(=O)NC(=O)c1cc2c(F)cc(N3CCC3)cc2o1 [Example 211, 6-(Azetidin-1-yl)-N-(2-ethoxy-5-phenoxy-phenyl)sulfonyl-4-fluoro-benzofuran-2-carboxamide]"
72.9,1.93e-07,"CC1(C)COc2ccc(S(=O)(=O)NC(=O)c3cc4c(F)cc(N5CCC5)cc4o3)cc21 [Example 190, 6-(Azetidin-1-yl)-N-(3,3-dimethyl-2,3-dihydro-1-benzofuran-5-sulfonyl)-4-fluoro-1-benzofuran-2-carboxamide]"
132,2.55e-06,"O=C(NS(=O)(=O)c1cccc2c(N3CCOCC3)cccc12)c1cc2c(F)cc(N3CCC3)cc2o1 [Example 188, 6-(Azetidin-1-yl)-4-fluoro-N-[5-(morpholin-4-yl)naphthalene-1-sulfonyl]-1-benzofuran-2-carboxamide]"
42.7,5.73e-07,"CCc1cccc(OC(C)C)c1S(=O)(=O)NC(=O)c1cc2c(F)cc(N3CCC3)cc2o1 [Example 84, 6-(Azetidin-1-yl)-N-{2-ethyl-6-[(propan-2-yl)oxy]benzene-1-sulfonyl}-4-fluoro-1-benzofuran-2-carboxamide]"
21.4,2.24e-07,"O=C(NS(=O)(=O)c1cc(Br)cc2c1OCC2)c1cc2c(F)cc(N3CCC3)cc2o1 [Example 177, 6-(Azetidin-1-yl)-N-(5-bromo-2,3-dihydro-1-benzofuran-7-sulfonyl)-4-fluoro-1-benzofuran-2-carboxamide]"
34.9,5.02e-07,"CCCOc1cccc(CCC)c1S(=O)(=O)NC(=O)c1cc2c(F)cc(N3CCC3)cc2o1 [Example 31, 6-(Azetidin-1-yl)-4-fluoro-N-(2-propoxy-6-propylbenzene-1-sulfonyl)-1-benzofuran-2-carboxamide]"
85.5,7.07e-07,"CC(C)c1cc(Br)ccc1S(=O)(=O)NC(=O)c1cc2c(F)cc(N3CCC3)cc2o1 [Example 38, 6-(Azetidin-1-yl)-N-[4-bromo-2-(propan-2-yl)benzene-1-sulfonyl]-4-fluoro-1-benzofuran-2-carboxamide]"
